Test results: ChEMBL document CHEMBL1201862, “PubChem BioAssay data set” (2004)
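Method: 48-hour compound exposure of cells in 96-well plates, five concentrations, linear interpolation of endpoints. GI50: concentration for 50% inhibition of growth.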 The source made the active and inactive calls. Cut-off read from the data, not from the text of the source: active = GI50 up to about 1.1 µM and inactive = higher.

Columns and labels:
Assay in all cases: inhibition of tumour cell growth, NCI panel, 48 h
HCT-116 = tested on: HCT-116
NCI-H226 = tested on: NCI-H226
M14 = tested on: M14
LOX IMVI = tested on: LOX IMVI
T47D = tested on: T47D
ACHN = tested on: ACHN
EKVX = tested on: EKVX
MDA-MB-435 = tested on: MDA-MB-435
NCI-H23 = tested on: NCI-H23
SF-539 = tested on: SF-539
NCI-H522 = tested on: NCI-H522
SNB-75 = tested on: SNB-75
HCC 2998 = tested on: HCC 2998
UO-31 = tested on: UO-31
BT-549 = tested on: BT-549
COLO 205 = tested on: COLO 205
HOP-92 = tested on: HOP-92
CAKI-1 = tested on: CAKI-1
NCI/ADR-RES = tested on: NCI/ADR-RES
OVCAR-8 = tested on: OVCAR-8

Measured: GI50

CC1CN=C(NCc2ccccc2)S1 (stereo not drawn)
inactive: HCT-116 > 100 µM | NCI-H226 86.7 µM | M14 > 100 µM | LOX IMVI > 100 µM | T47D > 100 µM | ACHN > 100 µM | EKVX > 100 µM | MDA-MB-435 39.1 µM | NCI-H23 > 100 µM | SF-539 > 100 µM | NCI-H522 > 100 µM | SNB-75 > 100 µM | HCC 2998 > 100 µM | UO-31 > 100 µM | BT-549 > 100 µM

COC(C/C=C\C=C\CC/C=C/CC(C)/C=C/C(=C\C(=O)O)CC(=O)O)/C(C)=C\C=C(/C)C(=O)O (stereo not drawn)
inactive: HCT-116 > 100 µM | M14 > 100 µM | COLO 205 > 100 µM | HOP-92 > 100 µM | EKVX 28.4 µM | MDA-MB-435 > 100 µM | NCI-H23 > 100 µM | NCI-H522 > 100 µM | SNB-75 58.3 µM | HCC 2998 > 100 µM | UO-31 > 100 µM | CAKI-1 > 100 µM | BT-549 > 100 µM

CC[N+]1(C)CCC(O)(c2ccc(Cl)cc2)C(C(=O)c2ccc(Cl)cc2)C1 (stereo not drawn)
inactive: HCT-116 10.3 µM | NCI-H226 23.8 µM | M14 17.4 µM | LOX IMVI 5.58 µM | T47D 2.79 µM | ACHN 19 µM | COLO 205 4.89 µM | HOP-92 > 10 µM | EKVX > 10 µM | MDA-MB-435 19.8 µM | NCI-H23 17.4 µM | NCI-H522 1.79 µM | SNB-75 > 10 µM | NCI/ADR-RES 24.2 µM | HCC 2998 19.9 µM | OVCAR-8 46.6 µM | UO-31 20.1 µM

CC(CO)CCNc1ncnc2c1ncn2CCC#N (stereo not drawn)
inactive: HCT-116 > 100 µM | NCI-H226 > 100 µM | M14 > 100 µM | LOX IMVI > 100 µM | T47D > 100 µM | ACHN > 100 µM | COLO 205 > 100 µM | HOP-92 > 100 µM | EKVX > 100 µM | MDA-MB-435 > 100 µM | NCI-H23 > 100 µM | SF-539 > 100 µM | NCI-H522 > 100 µM | SNB-75 > 100 µM | NCI/ADR-RES > 100 µM | HCC 2998 > 100 µM | OVCAR-8 > 100 µM | UO-31 > 100 µM | CAKI-1 > 100 µM

COC(=O)CCC(=O)c1ccc2c(c1)CC1(C2)Cc2ccc3c(c2C1)CCCC3=O (stereo not drawn)
inactive: HCT-116 > 34 µM | NCI-H226 27.8 µM | M14 9.1 µM | LOX IMVI 20 µM | T47D 34.8 µM | ACHN 21.1 µM | COLO 205 21.5 µM | HOP-92 15.5 µM | EKVX 56.8 µM | MDA-MB-435 3.73 µM | NCI-H23 31 µM | SF-539 11.9 µM | NCI-H522 21.4 µM | SNB-75 86.5 µM | NCI/ADR-RES 29 µM | HCC 2998 38.3 µM | OVCAR-8 26.7 µM | UO-31 18.2 µM | CAKI-1 16.4 µM
